Assay results: patent US5580982A, “Substituted 3-(aminoalkylamino)-1,2-benzisoxazoles and related compounds” (priority 1995, dated 1996)
pIC50: −log10 of the molar value. Where a name gives a salt, the structure may show the parent alone. Read-outs that look alike come from different tables or passages of the source.

Assays:
MAO-A [1] = target: T1, MAO-A (Rattus norvegicus, UniProt P21396); experiment: Ex vivo monoamine oxidase inhibition assay, Type A; type: in vivo; settings: po
T1 construct: the whole brain without cerebellum was dissected rapidly and frozen on dry ice; from tissue; host or cells: whole brain without cerebellum of orally dosed male Wistar rats, homogenate
T1 sequence (P21396 1-526): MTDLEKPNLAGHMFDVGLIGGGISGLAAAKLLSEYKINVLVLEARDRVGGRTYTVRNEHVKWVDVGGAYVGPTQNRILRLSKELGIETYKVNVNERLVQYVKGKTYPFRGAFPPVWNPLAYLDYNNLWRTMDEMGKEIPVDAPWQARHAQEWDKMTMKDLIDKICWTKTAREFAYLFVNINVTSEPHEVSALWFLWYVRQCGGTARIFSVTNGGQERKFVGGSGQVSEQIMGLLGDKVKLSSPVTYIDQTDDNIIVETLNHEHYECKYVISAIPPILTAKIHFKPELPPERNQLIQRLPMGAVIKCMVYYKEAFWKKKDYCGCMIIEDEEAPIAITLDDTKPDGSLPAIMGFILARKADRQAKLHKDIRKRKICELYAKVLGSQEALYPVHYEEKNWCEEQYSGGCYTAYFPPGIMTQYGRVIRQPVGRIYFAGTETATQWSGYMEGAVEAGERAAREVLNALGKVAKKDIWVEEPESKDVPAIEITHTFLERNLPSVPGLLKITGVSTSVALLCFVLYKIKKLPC
Description: (§1) The enzyme monoamine oxidase (MAO) exists in two catalytically distinguishable forms termed MAO-A and MAO-B. The ability of the compounds of the invention to inhibit MAO ex vivo in the rat was determined using a procedure adapted from the procedure set forth in The Journal of Pharmacology and Experimental Therapeutics, Vol. 248, No. 1, (1989), pp. 400-414.
(§2) The compound to be tested was administered to male Wistar rats orally. At specified times after administration the rats were decapitated and the whole brain without cerebellum was dissected rapidly and frozen on dry ice. The samples were stored at -80° C. until measurement of the MAO activity. After thawing, the tissues were homogenized in 5 volumes of 0.1 mol/l of potassium-phosphate buffer, pH 7.4, using all glass homogenisers. MAO activity was determined essentially as described by Wurtman and Axelrod. Biochem. Pharmacol. 12: 1439-1441, (1963).
(§3) The enzyme reaction was started by addition of 80 μl of the MAO-A substrate [^3 H]-5-HT (0.96 mCi/mmol, final amine concentration is 200 μM or of the MAO-B substrate [^14 C]PEA (0.192 mCi/mmol, final amine concentration is 200 μM and the incubation continued for 10 minutes at 37° C. Then, the reaction was stopped by addition of 200 μl of 2N HCl, and the deaminated metabolites were extracted by vigorous shaking for 10 minutes with 5 ml of diethylether (5-HT-extraction) or n-heptane (PEA-extraction). After centrifugation (1000×g; 30 sec) the water-phase was frozen in dry ice and the organic layer poured into plastic vials containing 5 ml of scintillation cocktail. Finally, the radioactivity was determined in a scintillation spectrometer. Reaction mixtures as described above but lacking the homogenate served as blanks.

MAO-B = target: T2, MAO-B (Rattus norvegicus, UniProt P19643); experiment: Ex vivo monoamine oxidase inhibition assay, Type B; type: in vivo; settings: po
T2 construct: the whole brain without cerebellum was dissected rapidly and frozen on dry ice; from tissue; host or cells: whole brain without cerebellum of orally dosed male Wistar rats, homogenate
T2 sequence (P19643 1-520): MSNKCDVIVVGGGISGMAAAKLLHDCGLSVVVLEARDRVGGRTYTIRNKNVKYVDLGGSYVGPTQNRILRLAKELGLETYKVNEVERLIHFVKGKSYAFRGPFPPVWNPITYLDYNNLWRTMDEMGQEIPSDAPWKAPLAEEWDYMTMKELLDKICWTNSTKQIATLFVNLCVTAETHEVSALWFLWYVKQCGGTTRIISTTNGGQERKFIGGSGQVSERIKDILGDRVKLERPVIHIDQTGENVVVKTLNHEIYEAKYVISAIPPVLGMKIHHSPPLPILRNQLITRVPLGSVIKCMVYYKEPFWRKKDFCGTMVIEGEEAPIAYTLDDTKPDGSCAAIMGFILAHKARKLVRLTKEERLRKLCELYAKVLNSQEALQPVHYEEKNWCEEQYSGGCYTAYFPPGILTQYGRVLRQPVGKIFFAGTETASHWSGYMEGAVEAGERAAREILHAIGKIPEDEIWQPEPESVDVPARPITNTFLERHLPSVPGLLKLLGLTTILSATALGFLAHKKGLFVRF
Description: as §1, §2, §3

Brain AChE = target: T3, Brain AChE (Rattus norvegicus, UniProt P37136); experiment: In vitro inhibition of acetylcholinesterase activity in rat striatum; type: biochemical
T3 construct: corpora striata dissected free, weighed and homogenized in 19 volumes; from tissue; host or cells: corpora striata of male Wistar rats, whole homogenate
T3 sequence (P37136 32-614): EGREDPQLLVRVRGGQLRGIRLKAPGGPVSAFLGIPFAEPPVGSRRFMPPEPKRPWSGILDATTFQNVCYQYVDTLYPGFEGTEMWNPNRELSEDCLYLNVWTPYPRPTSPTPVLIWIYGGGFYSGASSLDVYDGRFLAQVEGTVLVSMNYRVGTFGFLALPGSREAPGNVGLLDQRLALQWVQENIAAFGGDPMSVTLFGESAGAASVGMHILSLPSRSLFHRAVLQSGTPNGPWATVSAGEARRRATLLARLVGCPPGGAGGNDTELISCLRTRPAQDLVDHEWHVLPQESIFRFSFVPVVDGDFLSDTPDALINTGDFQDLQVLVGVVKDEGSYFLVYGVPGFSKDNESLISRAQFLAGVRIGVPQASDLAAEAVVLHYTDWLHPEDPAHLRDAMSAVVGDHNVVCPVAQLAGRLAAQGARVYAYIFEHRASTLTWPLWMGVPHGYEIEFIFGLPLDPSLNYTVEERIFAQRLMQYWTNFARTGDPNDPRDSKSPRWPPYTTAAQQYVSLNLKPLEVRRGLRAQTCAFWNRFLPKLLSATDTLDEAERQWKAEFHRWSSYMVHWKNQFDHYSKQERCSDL
Description: In Vitro Inhibition of Acetylcholinesterase Activity in Rat Striatum
The method described below was used in this invention for assaying cholinesterase activity. This is a modification of the method of Ellman et al., Biochem. Pharmacol. 7, 88 (1961).
4. A 2 mM stock solution of the test drug is made up in a suitable solvent and brought to volume with 0.5 mM DTNB (reagent 3).
Drugs are serially diluted (1:10) such that the final concentration (in cuvette) is 10^-4 M and screened for activity. If active, IC50 values are determined from the inhibitory activity of subsequent concentrations.
Male Wistar rats are decapitated, brains rapidly removed, corpora striata dissected free, weighed and homogenized in 19 volumes (approximately 7 mg protein/ml) of 0.05M phosphate buffer, pH 7.2 using a Potter-Elvehjem homogenizer. A 25 microliter aliquot of the homogenate is added to 1.0 milliter vehicle or various concentrations of the test drug and preincubated for 10 minutes at 37° C.
Enzyme activity is measured with the Beckman DU-50 spectrophotometer. This method can be used for IC50 determinations and for measuring kinetic constants.
Reagents are added to the blank and sample cuvettes as follows:
Blank values are determined for each run to control for non-enzymatic hydrolysis of substrate and these values are automatically subtracted by the kindata program available on kinetics soft-pac module. This program also calculates the rate of absorbance change for each cuvette.
Substrate concentration is 10 mM diluted 1:2 in assay yielding final concentration of 5 mM. DTNB concentration is 0.5 mM yielding 0.25 mM final concentration. [formula] IC50 values are calculated from log-probit analysis.

monoamine oxidase = settings: literature reference (2); cited from earlier work
MAO-A [2] = target: T1, MAO-A; experiment: Inhibition of Type A monoamine oxidase activity in rat brain synaptosomes; type: biochemical; settings: substrate [^3 H]-5HT 200 μM; read-out: Inhibitory Concentration - IC50 MAO-A
Description: Inhibition of Type A and Type B Monoamine Oxidase Activity in Rat Brain Synaptosomes
To determine the selective inhibition of the two forms of monoamine oxidase (MAO).
Although various methods for measuring MAO activity are available, the described method involves the extraction of the radiolabeled deaminated metabolites of [^3 H]-5HT or [^14 C]-β-phenethylamine. This procedure allows MAO-A and MAO-B activities to be measured either simultaneously or individually (3).
c. Add 12 μl of [^3 H]-5HT to 2 ml of the 5 mM 5HT solution. (Final amine concentration in the assay is 200 μM: see below.)
5. Equal amounts of MAO-A (5HT) and MAO-B (PEA) substrates are combined for simultaneously testing both MAO types, i.e. mixed stock solution of 2.5 mM 5HT and 2.5 mM PEA, 40 μl of this mixed solution gives a 200 μM final concentration of each amine in the assay. When testing only one MAO type, the individual 5 mM stock solutions must be diluted 1:1 with distilled water prior to adding 40 μl to the incubation mixture; i.e., same 200 μM final amine concentration.
Male Wistar rats weighing 150-250 grams were sacrificed and the brains rapidly removed. Whole brain minus cerebellum was homogenized in 30 volumes of ice-cold, phosphate-buffered 0.25M sucrose, using a Potter-Elvejhem homogenizer. The homogenate was centrifuged at 1000 g for 10 minutes and the supernatant (S1) decanted and recentrifuged at 18,000 g for 20 minutes. The resulting pellet (P2) was resuspended in fresh 0.25M sucrose and served as the tissue source for mitochondrial MAO.
Tubes are preincubated for 15 minutes at 37° C. and the assay is started by adding 40 μl of combined substrate ([^3 H]-5HT and [^14 C]-PEA) at 15 second intervals. The tubes are incubated for 30 minutes at 37° C. and the reaction stopped by the addition of 0.3 ml 2N HCl. Tissue blank values are determined by adding the acid before the radioactive substrate. The oxidative products of the reaction are extracted with ethyl acetate/toluene (1:1). 5 ml of this mixture is added to the tubes. The resultant mixture is vortexed for 15 seconds to extract the deaminated metabolites into the organic phase and the latter is allowed to separate from the aqueous phase. The tubes are placed in acetone/dry ice bath to freeze the aqueous layer. When this layer is frozen, the top organic layer is poured into a scintillation vial. 10 ml of Liquiscint is added and the samples are counted using window settings for ^14 C in one channel and ^3 H in the second channel. IC50 values are determined by log-probit analysis.

[3] = 50 mg/kg, p.o., 0.5 h, read-out: Ex vivo inhibition (%) of monoamine oxidase Type A
[4] = 50 mg/kg, p.o., 1.0 h, read-out: Ex vivo inhibition (%) of monoamine oxidase Type A
[5] = 50 mg/kg, p.o., 4.0 h, read-out: Ex vivo inhibition (%) of monoamine oxidase Type A
[6] = 50 mg/kg, p.o., 24.0 h, read-out: Ex vivo inhibition (%) of monoamine oxidase Type A
[7] = 50 mg/kg, p.o., 0.5 h, read-out: Ex vivo inhibition (%) of monoamine oxidase Type B
[8] = 50 mg/kg, p.o., 1.0 h, read-out: Ex vivo inhibition (%) of monoamine oxidase Type B
[9] = 50 mg/kg, p.o., 4.0 h, read-out: Ex vivo inhibition (%) of monoamine oxidase Type B
[10] = 50 mg/kg, p.o., 24.0 h, read-out: Ex vivo inhibition (%) of monoamine oxidase Type B
[11] = rat striatum homogenate, pH 7.2, read-out: Inhibitory Concentration IC50 Brain AChE

CNC(=O)Oc1ccc2c(N(C)CCN3CCOCC3)noc2c1 [3-[[2-(4-Morpholinyl)ethyl]methylamino]1,2-benzisoxazol-6-yl methylcarbamate]
inhibition at 50 mg/kg (MAO-A [1]; read-out: Ex vivo inhibition (%) of monoamine oxidase Type A, 50 mg/kg, p.o., 0.5 h): 26%
inhibition at 50 mg/kg (MAO-A [1]; read-out: Ex vivo inhibition (%) of monoamine oxidase Type A, 50 mg/kg, p.o., 1.0 h): 29%
inhibition at 50 mg/kg (MAO-A [1]; read-out: Ex vivo inhibition (%) of monoamine oxidase Type A, 50 mg/kg, p.o., 4.0 h): 42%
inhibition at 50 mg/kg (MAO-A [1]; read-out: Ex vivo inhibition (%) of monoamine oxidase Type A, 50 mg/kg, p.o., 24.0 h): 14%
inhibition at 50 mg/kg (MAO-B; read-out: Ex vivo inhibition (%) of monoamine oxidase Type B, 50 mg/kg, p.o., 0.5 h): 19%
inhibition at 50 mg/kg (MAO-B; read-out: Ex vivo inhibition (%) of monoamine oxidase Type B, 50 mg/kg, p.o., 1.0 h): 19%
inhibition at 50 mg/kg (MAO-B; read-out: Ex vivo inhibition (%) of monoamine oxidase Type B, 50 mg/kg, p.o., 4.0 h): 28%
inhibition at 50 mg/kg (MAO-B; read-out: Ex vivo inhibition (%) of monoamine oxidase Type B, 50 mg/kg, p.o., 24.0 h): 12%
pIC50 (Brain AChE): 4.89

CN(C)C(=O)Oc1ccc2c(N3CCN(c4ccncc4)CC3)noc2c1 [3-[1-(4-Pyridyl)piperazinyl]-1,2-benzisoxazol-6-yl dimethylcarbamate]
pIC50 (Brain AChE): 6.06

CC(C)NNC(=O)c1ccncc1 [iproniazid]
selectivity of monoamine oxidase inhibition (type A / type B) (monoamine oxidase): nonselective inhibitors

COc1cc(Br)c2oc(C3CCNCC3)cc2c1 [Brofaromine, reference compound]
pIC50 (MAO-A [2]): 6.74

C#CCN(C)CCCOc1ccc(Cl)cc1Cl [Clorgyline]
selectivity of monoamine oxidase inhibition (type A / type B) (monoamine oxidase): selective inhibitor of the type A enzyme

N[C@@H]1C[C@H]1c1ccccc1 (relative stereo) [tranylcypromine]
selectivity of monoamine oxidase inhibition (type A / type B) (monoamine oxidase): nonselective inhibitors

CN(C)C(=O)Oc1ccc2c(N(C)CCN3CCOCC3)noc2c1Br [7-Bromo-3-[N-methyl, N,2-(4-morpholinyl)ethyl]amino-1,2-benzisoxazol-6-yl dimethylcarbamate]
pIC50 (Brain AChE): 5.70

c1ccc2c(NCCN3CCOCC3)noc2c1 [N-[2-(4-Morpholinyl)ethyl]-1,2-benzisoxazol-3-amine]
inhibition at 50 mg/kg (MAO-A [1]; [3]): 88%
inhibition at 50 mg/kg (MAO-A [1]; [4]): 85%
inhibition at 50 mg/kg (MAO-A [1]; [5]): 68%
inhibition at 50 mg/kg (MAO-A [1]; [6]): 3.5%
inhibition at 50 mg/kg (MAO-B; [7]): 52%
inhibition at 50 mg/kg (MAO-B; [8]): 45%
inhibition at 50 mg/kg (MAO-B; [9]): 33%
inhibition at 50 mg/kg (MAO-B; [10]): 0%

CN(CCN1CCOCC1)c1noc2ccccc12 [N-methyI-N-[2-(4-morpholinyl)ethyl]-1,2-benzisoxazol-3-amine]
inhibition at 50 mg/kg (MAO-A [1]; [3]): 78%
inhibition at 50 mg/kg (MAO-A [1]; [4]): 66%
inhibition at 50 mg/kg (MAO-A [1]; [5]): 76%
inhibition at 50 mg/kg (MAO-A [1]; [6]): 11%
inhibition at 50 mg/kg (MAO-B; [7]): 32%
inhibition at 50 mg/kg (MAO-B; [8]): 25%
inhibition at 50 mg/kg (MAO-B; [9]): 36%
inhibition at 50 mg/kg (MAO-B; [10]): 0%

C#CCN(C)Cc1ccccc1 [pargyline]
selectivity of monoamine oxidase inhibition (type A / type B) (monoamine oxidase): selective inhibitors of the type B enzyme

C#CCN(C)C(C)Cc1ccccc1 (stereo not drawn) [deprenyl]
selectivity of monoamine oxidase inhibition (type A / type B) (monoamine oxidase): selective inhibitors of the type B enzyme

COc1ccc2c(N(C)CCC3CCN(Cc4ccccc4)CC3)noc2c1 [6-Methoxy-N-methyl-N-[2-[4-(1-phenylmethyl)piperdinyl]ethyl]-1,2-benzisoxazol-3-amine sesquihydrochloride]
pIC50 (Brain AChE; [11]): 5.40

COc1ccc2c(N3CCN(c4ccncc4)CC3)noc2c1Br [7-Bromo-6-methoxy-3-[1-(4-pyridyl)piperazinyl]-1,2-benzisoxazole]
pIC50 (Brain AChE; [11]): 4.85

CNCCNc1noc2cc(OC)ccc12 [6-Methoxy-N-[2-(methylamino)ethyl)-1,2-benzisoxazol-3-amine]
pIC50 (MAO-A [2]): 4.60
